From patent EP0465716A1, “Optically active thiazetoquino-line-3-carboxylic acid compound, method for preparation thereof, and a pharmaceutical composition comprising the same” (priority 1990, dated 1992)
Converted amounts (≈) assume the structure as drawn.

What was measured:
[1] = test system: Pseudomonas aeruginosa HNR 1472; experiment: MIC, twofold agar dilution method (clinically isolated strain); type: cell-based; conditions: HNR1472; Pseudomonas aeruginosa HNR 1472, Gram -; 10^6 cfu/ml; 18 hrs at 37 °C
Procedure: (§1) Overnight cultures in Mueller-Hinton broth were suspended by buffered saline gelatin. One loopful of the bacterial suspension (10⁶ or 10⁸ colony-forming units/ml) was incubated onto the plates containing test compounds. The plates were incubated for 18 hrs at 37 °C. The MIC was defined by the lowest concentration of the drug that inhibited visible growth of bacteria.

[2] = test system: Enterobacter cloacae HNR 1939; experiment: as above; type: cell-based; conditions: HNR1939; Enterobacter cloacae HNR 1939, Gram -; 10^6 cfu/ml; 18 hrs at 37 °C
Procedure: as §1

[3] = test system: Klebsiella pneumoniae HNR 828; experiment: as above; type: cell-based; conditions: HNR828; Klebsiella pneumoniae HNR 828, Gram -; 10^6 cfu/ml; 18 hrs at 37 °C
Procedure: as §1

[4] = test system: Enterobacter cloacae HNR 1941; experiment: as above; type: cell-based; conditions: HNR1941; Enterobacter cloacae HNR 1941, Gram -; 10^6 cfu/ml; 18 hrs at 37 °C
Procedure: as §1

[5] = test system: Pseudomonas aeruginosa HNR 1537; experiment: as above; type: cell-based; conditions: HNR1537; Pseudomonas aeruginosa HNR 1537, Gram -; 10^6 cfu/ml; 18 hrs at 37 °C
Procedure: as §1

[6] = test system: Staphylococcuss aureus HPC 308; experiment: as above; type: cell-based; conditions: Staphylococcuss aureus HPC 308, Gram +; 10^6 cfu/ml; 18 hrs at 37 °C
Procedure: as §1

[7] = test system: Enterococcus faecalis HPC 984; experiment: as above; type: cell-based; conditions: HPC984; Enterococcus faecalis HPC 984, Gram +; 10^6 cfu/ml; 18 hrs at 37 °C
Procedure: as §1

[8] = test system: Enterobacter cloacae HNR 1946; experiment: as above; type: cell-based; conditions: HNR1946; Enterobacter cloacae HNR 1946, Gram -; 10^6 cfu/ml; 18 hrs at 37 °C
Procedure: as §1

[9] = test system: Acinetobacter calcoaceticus HNR 904; experiment: as above; type: cell-based; conditions: HNR904; Acinetobacter calcoaceticus HNR 904, Gram -; 10^6 cfu/ml; 18 hrs at 37 °C
Procedure: as §1

[10] = test system: Staphylococcuss aureus HPC 527; experiment: as above; type: cell-based; conditions: Staphylococcuss aureus HPC 527, Gram +; 10^6 cfu/ml; 18 hrs at 37 °C
Procedure: as §1

[11] = test system: Serratia marcescens HNR 1792; experiment: as above; type: cell-based; conditions: HNR1792; Serratia marcescens HNR 1792, Gram -; 10^6 cfu/ml; 18 hrs at 37 °C
Procedure: as §1

[12] = test system: Enterococcus faecalis HPC 975; experiment: as above; type: cell-based; conditions: HPC975; Enterococcus faecalis HPC 975, Gram +; 10^6 cfu/ml; 18 hrs at 37 °C
Procedure: as §1

[13] = test system: Serratia marcescens HNR 1544; experiment: as above; type: cell-based; conditions: HNR1544; Serratia marcescens HNR 1544, Gram -; 10^6 cfu/ml; 18 hrs at 37 °C
Procedure: as §1

[14] = test system: Acinetobacter calcoaceticus HNR 939; experiment: as above; type: cell-based; conditions: HNR939; Acinetobacter calcoaceticus HNR 939, Gram -; 10^6 cfu/ml; 18 hrs at 37 °C
Procedure: as §1

[15] = test system: Klebsiella pneumoniae HNR 869; experiment: as above; type: cell-based; conditions: HNR869; Klebsiella pneumoniae HNR 869, Gram -; 10^6 cfu/ml; 18 hrs at 37 °C
Procedure: as §1

[16] = test system: Acinetobacter calcoaceticus HNR 916; experiment: as above; type: cell-based; conditions: HNR916; Acinetobacter calcoaceticus HNR 916, Gram -; 10^6 cfu/ml; 18 hrs at 37 °C
Procedure: as §1

[17] = test system: Pseudomonas aeruginosa HNR 1489; experiment: as above; type: cell-based; conditions: HNR1489; Pseudomonas aeruginosa HNR 1489, Gram -; 10^6 cfu/ml; 18 hrs at 37 °C
Procedure: as §1

[18] = test system: Enterococcus faecalis HPC 948; experiment: as above; type: cell-based; conditions: HPC948; Enterococcus faecalis HPC 948, Gram +; 10^6 cfu/ml; 18 hrs at 37 °C
Procedure: as §1

[19] = test system: Klebsiella pneumoniae HNR 858; experiment: as above; type: cell-based; conditions: HNR858; Klebsiella pneumoniae HNR 858, Gram -; 10^6 cfu/ml; 18 hrs at 37 °C
Procedure: as §1

[20] = test system: Serratia marcescens HNR 1767; experiment: as above; type: cell-based; conditions: HNR1767; Serratia marcescens HNR 1767, Gram -; 10^6 cfu/ml; 18 hrs at 37 °C
Procedure: as §1

[21] = test system: Staphylococcuss aureus HPC 292; experiment: as above; type: cell-based; conditions: Staphylococcuss aureus HPC 292, Gram +; 10^6 cfu/ml; 18 hrs at 37 °C
Procedure: as §1

Male mice of ddY strain = experiment: Convulsion inducing activity in combination with fenbufen; conditions: thirty minutes after fenbufen 100 mg/kg orally
Procedure: Male mice of ddY strain, 5 weeks old, were used. Fenbufen suspended in 0.5 % carboxymethylcellulose was administered orally at a dose of 100 mg/kg. After thirty minutes, test compounds suspended in 0.5 % carboxymethylcellulose were injected intraperitoneally (i.p.) at a dose of 100 mg/kg or 300 mg/kg.

[22] = test system: Klebsiella pneumoniae PCI-602; experiment: MIC, twofold agar dilution method (standard laboratory strain); type: cell-based; conditions: PCI602; Klebsiella pneumoniae PCI-602, Gram -; 10^6 cfu/ml; 18 hrs at 37 °C; read-out: MIC
Procedure: as §1, with “Minimum inhibitory concentrations (MIC) of test compounds were determined by the twofold agar dilution method (Chemotherapy, 29(1), 76(1981)). Overnight” for “Overnight”

[23] = test system: Pseudomonas aeruginosa IFO 3445; experiment: as above; type: cell-based; conditions: IFO3445; Pseudomonas aeruginosa IFO 3445, Gram -; 10^6 cfu/ml; 18 hrs at 37 °C
Procedure: as §1

[24] = test system: Serratia marcescens IAM 1184; experiment: as above; type: cell-based; conditions: IAM1184; Serratia marcescens IAM 1184, Gram -; 10^6 cfu/ml; 18 hrs at 37 °C
Procedure: as §1

[25] = test system: Staphylococuss aureus FDA 209PJC-1; experiment: as above; type: cell-based; conditions: Staphylococuss aureus FDA 209PJC-1, Gram +; 10^6 cfu/ml; 18 hrs at 37 °C
Procedure: as §1

Enterobacter cloacae 963 = experiment: as above; type: cell-based; conditions: Enterobacter cloacae 963, Gram -; 10^6 cfu/ml; 18 hrs at 37 °C
Procedure: as §1

[26] = test system: Escherichia coli NIHJ JC-2; experiment: as above; type: cell-based; conditions: NIHJJC2; Escherichia coli NIHJ JC-2, Gram -; 10^6 cfu/ml; 18 hrs at 37 °C
Procedure: as §1

Structure (SMILES) | MIC [1] | MIC [2] | MIC [3] | MIC [4] | MIC [5] | MIC [6] | MIC [7] | MIC [8] | MIC [9] | MIC [10] | MIC [11] | MIC [12] | MIC [13] | MIC [14] | MIC [15] | MIC [16] | MIC [17] | MIC [18] | MIC [19] | MIC [20] | also measured
CC1Sc2c(C(=O)O)c(=O)c3cc(F)c(N4CCNCC4)c(F)c3n21 (stereo not drawn) [Ref. Drug C, 6,8-difluoro-1-methyl-4-oxo-7-(1-piperazinyl)-1H,4H-[1,3]thiazeto[3,2-a]quinoline-3-carboxylic acid] | 6.25 µg/mL (≈ 17 µM) | 0.39 µg/mL (≈ 1.06 µM) | 3.13 µg/mL (≈ 8.52 µM) | 6.25 µg/mL (≈ 17 µM) | 12.5 µg/mL (≈ 34 µM) | 6.25 µg/mL (≈ 17 µM) | 0.39 µg/mL (≈ 1.06 µM) | 0.39 µg/mL (≈ 1.06 µM) | 25 µg/mL (≈ 68 µM) | 0.2 µg/mL (≈ 0.544 µM) | 3.13 µg/mL (≈ 8.52 µM) | 50 µg/mL (≈ 136 µM) | 0.1 µg/mL (≈ 0.272 µM) | 3.13 µg/mL (≈ 8.52 µM) | 0.78 µg/mL (≈ 2.12 µM) | 0.2 µg/mL (≈ 0.544 µM) | 0.2 µg/mL (≈ 0.544 µM) | 3.13 µg/mL (≈ 8.52 µM) | 0.39 µg/mL (≈ 1.06 µM) | 12.5 µg/mL (≈ 34 µM) | MIC [21]: 25 µg/mL (≈ 68 µM); Number of convulsion induced / Number of animals (Male mice of ddY strain; 100 mg/kg (i.p.)): 6 / 6; MIC [22]: 0.025 µg/mL (≈ 0.068 µM); MIC [23]: 0.2 µg/mL (≈ 0.544 µM); MIC [24]: 0.1 µg/mL (≈ 0.272 µM); MIC [25]: 0.1 µg/mL (≈ 0.272 µM); MIC (Enterobacter cloacae 963): 0.05 µg/mL (≈ 0.136 µM); MIC [26]: 0.05 µg/mL (≈ 0.136 µM)
CC1Sc2c(C(=O)O)c(=O)c3cc(F)c(N4CCC(N)C4)cc3n21 (stereo not drawn) [Ref. Drug D, 7-(3-amino-1-pyrrolidinyl)-6-fluoro-1-methyl-4-oxo-1H,4H-[1,3]thiazeto[3,2-a]quinoline-3-carboxylic acid] | 50 µg/mL (≈ 143 µM) | 0.39 µg/mL (≈ 1.12 µM) | 50 µg/mL (≈ 143 µM) | > 100 µg/mL | 1.56 µg/mL (≈ 4.46 µM) | 25 µg/mL (≈ 71.6 µM) | 0.39 µg/mL (≈ 1.12 µM) | 0.78 µg/mL (≈ 2.23 µM) | > 100 µg/mL | 0.1 µg/mL (≈ 0.286 µM) | 50 µg/mL (≈ 143 µM) | > 100 µg/mL | 0.1 µg/mL (≈ 0.286 µM) | 6.25 µg/mL (≈ 17.9 µM) | 3.13 µg/mL (≈ 8.96 µM) | 0.39 µg/mL (≈ 1.12 µM) | 0.1 µg/mL (≈ 0.286 µM) | 3.13 µg/mL (≈ 8.96 µM) | 0.39 µg/mL (≈ 1.12 µM) | > 100 µg/mL | MIC [21]: > 100 µg/mL; Number of convulsion induced / Number of animals (Male mice of ddY strain; 100 mg/kg (i.p.)): 0 / 6; Number of convulsion induced / Number of animals (Male mice of ddY strain; 300 mg/kg (i.p.)): 0 / 6; MIC [22]: 0.012 µg/mL (≈ 0.0343 µM); MIC [23]: 0.1 µg/mL (≈ 0.286 µM); MIC [24]: 0.1 µg/mL (≈ 0.286 µM); MIC [25]: 0.05 µg/mL (≈ 0.143 µM); MIC (Enterobacter cloacae 963): 0.05 µg/mL (≈ 0.143 µM); MIC [26]: 0.05 µg/mL (≈ 0.143 µM)
